A short description of series [1]: Elution of antibiotic from pellets or flakes into PBS at 37° C., Fluorescence Polarization Immunoassay. Format: physicochemical. Particulars: from rapidly resorbing pellets loaded with 4% antibiotic, FIG. 2. How it is done:
Elution was characterized by placing groups of eight pellets or the flakes of eight pellets (n≧3) in 20 ml phosphate buffered saline (PBS) in a 37° C. water bath. At specified times (t=1, 4, 8, 12, 24, 36, 48, 72, 96, 120, 144, 168, 240 hours), aliquots were removed and frozen at -40° C. At each time interval, the pellets were removed and placed in 20 ml fresh PBS. The amount of antibiotic in the eluates was determined (μg/ml) using a Florescence Polarization Immunoassay ([…], Abbott Laboratories, Abbott Park, Ill.). Testing was repeated for three batches of pellets.

The subject of series [2] is Pseudomonas aeruginosa strain ATCC 27317. As to the kind of experiment: Biological activity testing of eluates and antibiotic dilutions, growth in TSB, A530. Format: cell-based. The note with it: P. aeruginosa ATCC 27317, observed. The procedure:
Pseudomonas aeruginosa strain ATCC 27317 was used for biological activity testing of AmikacinTM and GentamicinTM eluates. A clinical isolate of Staphylococcus aureus Cowan I strain was used to assess activity of VancomycinTM eluates. The eluate having the lowest concentration for each antibiotic at each of the specified time points was used in the biological activity assay. P. aeruginosa or S. aureus was grown overnight at 37° C. in Trypticase soy broth (TSB). Conical tubes were prepared with 1.75 ml of TSB and 200 μl of antibiotic dilutions (AmikacinTM: 0-640 μg/ml, GentamicinTM: 0-2560 μg/ml, VancomycinTM: 0-160 μg/ml), or 200 μl eluate samples, or 200 μl buffer. All tubes except blanks were inoculated with 50 μl of 1:50 dilution of bacteria. Blanks were supplanted with an additional 50 μl of TSB instead of bacteria. The tubes were vortexed and incubated at 37° C. for 24 hours. A blank was used to adjust the spectrophotometer to zero, and the absorbance at 530 nm ([…]) was recorded. Results were reported as percent growth relative to control, calculated as ([…] sample/[…] control)×100. This method dilutes the sample concentration by a factor of 10. Testing was repeated for three replicates of the samples.

Converted amounts (≈) assume the structure as drawn.

With `CN[C@H](CC(C)C)C(=O)N[C@H]1C(=O)N[C@@H](CC(N)=O)C(=O)N[C@H]2C(=O)N[C@H]3C(=O)N[C@H](C(=O)N[C@H](C(=O)O)c4cc(O)cc(O)c4-c4cc3ccc4O)[C@H](O)c3ccc(c(Cl)c3)Oc3cc2cc(c3O[C@@H]2O[C@H](CO)[C@@H](O)[C@H](O)[C@H]2O[C@H]2C[C@](C)(N)[C@H](O)[C@H](C)O2)Oc2ccc(cc2Cl)[C@H]1O` [Vancomycin™, Vancomycin], the “Elution profile (qualitative)” value in series [1] is “burst of antibiotic in hour one”.
With Gentamicin [Gentamicin™], in series [2], the “minimum inhibitory concentration (MIC)” value was found to be 4.0 µg/mL. Moreover, the “Elution profile (qualitative)” value in series [1] was “peak at hour one and decrease exponentially”.
Regarding `NCC[C@H](O)C(=O)N[C@@H]1C[C@H](N)[C@@H](O[C@H]2O[C@H](CN)[C@@H](O)[C@H](O)[C@H]2O)[C@H](O)[C@H]1O[C@H]1O[C@H](CO)[C@@H](O)[C@H](N)[C@H]1O` [Amikacin™, Amikacin], the MIC in series [2] (Pseudomonas aeruginosa, ATCC27317, read-out: minimum inhibitory concentration (MIC)) turned out to be 4 µg/mL (≈ 6.83 µM). Moreover, the “Elution profile (qualitative)” value in series [1] was “peak at hour one and decrease exponentially”.

The record behind these values is patent US7923021B2, “Local delivery method and composition” (University of Memphis Research Foundation, priority 2007, dated 2011).
